Measurements: US20130324564A1, “POLYMORPHS OF (S)-1-(4,4,6,6,6-PENTADEUTERO-5-HYDROXYHEXYL)-3-7-DIMETHYL-1H-PURINE-2,6(3H,7H)-DIONE” (CONCERT PHARMACEUTICALS, INC., priority 2010, published 2013)

Legend:
[1] = Relative thermodynamic stability and interconversion of polymorphs; format: physicochemical
[2] = Solid-form stability of Form 1 under humidity, pressure and grinding stress; format: physicochemical

form stability / form change ([2]; exposed to 0.35 GPa pressure) | form stability / form change ([2]; exposed to 97% relative humidity for up to 12 days) | form stability / form change ([2]; ground at ambient temperature (30Hz for 2hrs)) | form stability / form change ([2]; ground at −196° C. (25Hz for 0.5hrs)) | form conversion ([1]; upon air drying, storage and/or slurrying at room temperature) | Structure (SMILES) | relative thermodynamic stability ([1]; compared with the other polymorphs)
stable and did not undergo a form change | stable and did not undergo a form change | stable and did not undergo a form change | stable and did not undergo a form change |  | [2H]C([2H])([2H])[C@H](O)C([2H])([2H])CCCn1c(=O)c2c(ncn2C)n(C)c1=O [Form 1, (S)-1-(4,4,6,6,6-pentadeutero-5-hydroxyhexyl)-3,7-dimethyl-1H-purine-2,6(3H,7H)-dione] | more thermodynamically stable than any of Forms 2, 3 and 4
 |  |  |  | convert to Form 1 | [2H]C([2H])([2H])[C@H](O)C([2H])([2H])CCCn1c(=O)c2c(ncn2C)n(C)c1=O [Form 2, (S)-1-(4,4,6,6,6-pentadeutero-5-hydroxyhexyl)-3,7-dimethyl-1H-purine-2,6(3H,7H)-dione] | 
